One test has as its target LRRK2 wild type enzyme (Homo sapiens, UniProt Q5S007). In words: Biochemical Assay: LRRK2 TR-FRET (LanthaScreen) kinase assay with LRRKtide substrate. To be noted: LRRK2 Inhibition, Table 8. The gist of the method: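 TR-FRET detection (Tb-labelled phospho-LRRKtide antibody, EDTA stop, 30 min) followed a 120 min, 23 °C reaction of 3 nM wild-type human LRRK2 with LRRKtide (400 nM) and ATP (25 μM) in Tris pH 8.0. Compounds: 11-point 3-fold series from 10 μM, 15 min enzyme preincubation.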
(In general: Time-resolved FRET reads energy transfer from a long-lived donor to a nearby acceptor.)

In test [1] the target is T1, wild type LRRK2 overexpressed in recombinant HEK-293T cells (Homo sapiens, UniProt Q5S007).
T1 construct: host or cells: HEK293T (transient transfection with pCMV-LRRK2 WT plasmid)
In words: pS935 LRRK2 Cell Assay (HTRF, phospho-LRRK2 Ser935). Type of test: cell-based. To be noted: LRRK2 Inhibition, Table 8, 2 hours compound incubation. The gist of the method:
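Phospho-Ser935 LRRK2 measured by two-antibody HTRF (Eu-cryptate donor, d2 acceptor; 665/615 nm ratio) after overnight detection at 23° C. Before lysis, transiently LRRK2-transfected HEK-293T cells were exposed 2 h at 37° C to a 9-point, 3-fold series from 10 μM, with DMSO at 0.2%.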

The record followed here is patent US20250270209A1 (INTERLINE THERAPEUTICS, INC., priority 2022, published 2025).

Sequence of LRRK2 wild type enzyme (Q5S007 whole entry): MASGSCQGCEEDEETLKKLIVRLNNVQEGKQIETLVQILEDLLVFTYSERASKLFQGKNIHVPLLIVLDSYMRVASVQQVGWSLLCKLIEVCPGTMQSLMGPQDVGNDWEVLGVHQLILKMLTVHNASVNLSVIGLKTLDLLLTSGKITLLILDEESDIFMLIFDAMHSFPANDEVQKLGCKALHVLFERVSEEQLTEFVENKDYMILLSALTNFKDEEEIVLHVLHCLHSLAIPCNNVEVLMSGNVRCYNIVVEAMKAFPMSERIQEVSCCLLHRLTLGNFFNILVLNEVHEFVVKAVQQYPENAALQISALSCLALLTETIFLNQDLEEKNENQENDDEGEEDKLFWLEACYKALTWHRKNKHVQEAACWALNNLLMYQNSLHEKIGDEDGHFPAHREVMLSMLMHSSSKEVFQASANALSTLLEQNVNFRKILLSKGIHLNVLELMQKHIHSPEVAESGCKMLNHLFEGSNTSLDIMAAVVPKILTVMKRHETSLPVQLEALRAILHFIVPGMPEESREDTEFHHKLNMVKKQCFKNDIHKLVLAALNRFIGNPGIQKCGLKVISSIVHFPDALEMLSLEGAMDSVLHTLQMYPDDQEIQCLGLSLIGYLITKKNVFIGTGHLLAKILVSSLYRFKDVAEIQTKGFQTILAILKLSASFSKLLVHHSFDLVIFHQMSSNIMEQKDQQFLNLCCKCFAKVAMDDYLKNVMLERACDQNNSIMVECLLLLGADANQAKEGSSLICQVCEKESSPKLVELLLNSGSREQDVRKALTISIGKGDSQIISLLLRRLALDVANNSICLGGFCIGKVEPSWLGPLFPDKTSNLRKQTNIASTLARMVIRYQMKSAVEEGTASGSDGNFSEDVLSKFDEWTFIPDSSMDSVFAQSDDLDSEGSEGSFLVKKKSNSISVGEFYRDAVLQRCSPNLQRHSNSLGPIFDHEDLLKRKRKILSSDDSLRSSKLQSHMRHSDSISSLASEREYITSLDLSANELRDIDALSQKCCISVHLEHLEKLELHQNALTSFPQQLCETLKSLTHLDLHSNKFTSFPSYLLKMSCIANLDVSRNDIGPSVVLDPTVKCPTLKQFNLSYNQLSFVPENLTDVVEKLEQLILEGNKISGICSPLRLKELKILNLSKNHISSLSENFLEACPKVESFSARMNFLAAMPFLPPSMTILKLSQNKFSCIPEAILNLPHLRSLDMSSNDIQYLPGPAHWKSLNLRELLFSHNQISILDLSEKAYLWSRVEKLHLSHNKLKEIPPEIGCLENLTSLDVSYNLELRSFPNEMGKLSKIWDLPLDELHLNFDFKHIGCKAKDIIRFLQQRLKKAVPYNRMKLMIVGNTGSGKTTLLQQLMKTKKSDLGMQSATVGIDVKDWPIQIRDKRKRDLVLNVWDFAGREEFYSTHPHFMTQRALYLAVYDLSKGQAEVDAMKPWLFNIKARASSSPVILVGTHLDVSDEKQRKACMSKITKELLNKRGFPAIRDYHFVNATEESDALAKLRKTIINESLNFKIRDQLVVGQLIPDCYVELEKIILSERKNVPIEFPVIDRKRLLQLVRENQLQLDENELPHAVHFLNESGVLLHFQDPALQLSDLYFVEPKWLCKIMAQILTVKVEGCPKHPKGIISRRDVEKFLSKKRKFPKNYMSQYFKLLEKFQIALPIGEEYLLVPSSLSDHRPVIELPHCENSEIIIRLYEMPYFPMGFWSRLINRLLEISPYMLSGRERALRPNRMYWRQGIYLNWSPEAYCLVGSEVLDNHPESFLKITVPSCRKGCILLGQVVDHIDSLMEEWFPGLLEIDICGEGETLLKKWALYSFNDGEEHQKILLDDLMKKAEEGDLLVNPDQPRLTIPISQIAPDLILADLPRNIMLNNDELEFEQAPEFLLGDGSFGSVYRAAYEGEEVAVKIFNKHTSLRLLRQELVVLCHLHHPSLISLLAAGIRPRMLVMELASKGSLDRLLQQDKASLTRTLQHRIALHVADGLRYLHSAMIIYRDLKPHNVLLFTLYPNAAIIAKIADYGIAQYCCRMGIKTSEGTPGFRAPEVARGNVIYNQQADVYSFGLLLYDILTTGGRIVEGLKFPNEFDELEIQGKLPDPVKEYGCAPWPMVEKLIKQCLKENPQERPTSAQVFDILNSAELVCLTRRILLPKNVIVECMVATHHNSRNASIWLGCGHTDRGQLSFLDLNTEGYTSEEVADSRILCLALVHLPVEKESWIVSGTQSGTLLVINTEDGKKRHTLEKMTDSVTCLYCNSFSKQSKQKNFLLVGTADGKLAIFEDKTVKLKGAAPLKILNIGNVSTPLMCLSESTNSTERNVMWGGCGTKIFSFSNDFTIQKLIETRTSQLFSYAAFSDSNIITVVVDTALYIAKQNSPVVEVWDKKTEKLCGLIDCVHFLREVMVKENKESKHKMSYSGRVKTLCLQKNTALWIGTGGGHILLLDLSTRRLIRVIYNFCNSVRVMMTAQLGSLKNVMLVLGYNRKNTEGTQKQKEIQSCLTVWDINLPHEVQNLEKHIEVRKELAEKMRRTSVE
T1 sequence (Q5S007 whole entry): as above

As a reminder, the IC50 is the concentration that inhibits the measured activity by half. With `COc1ccnc(C)c1NC(=O)Cc1nc2cnc3ccc(C#N)cc3c2n1[C@@H]1CCO[C@H](C)C1` [Compound 227, N-(4-methoxy-2-methyl-3-pyridyl){3-[(2R,4R)-2-methyltetrahydro-2H-pyran-4-yl]-12-cyano-3,5,8-triazatricyclo[7.4.0.0^2,6]trideca-1,4,6,8,10,12-hexaen-4-yl}acetamide], the IC50 at LRRK2 wild type enzyme was 0.359 nM; in test [1], 14.4 nM.

`Cc1ncc(NC(=O)Cc2nc3cnc4ccc(C#N)cc4c3n2[C@@H]2CCO[C@H](C)C2)c(C)n1` [Compound 261, N-(2,4-dimethyl-5-pyrimidinyl){3-[(2R,4R)-2-methyltetrahydro-2H-pyran-4-yl]-12-cyano-3,5,8-triazatricyclo[7.4.0.0^2,6]trideca-1,4,6,8,10,12-hexaen-4-yl}acetamide]: the IC50 came to 0.512 nM against LRRK2 wild type enzyme and 10.4 nM in test [1].

Take `Cc1cc(NC(=O)Cc2nc3cnc4ccc(C#N)cc4c3n2[C@@H]2CCO[C@H](C)C2)no1` [Compound 156, 2-{8-cyano-1-[(2R,4R)-2-methyloxan-4-yl]-1H-imidazo[4,5-c]quinolin-2-yl}-N-(5-methyl-1,2-oxazol-3-yl)acetamide]: the results for the IC50 (against LRRK2 wild type enzyme; in test [1]) were 0.529 nM and 6.83 nM, respectively.

As for `C[C@@H]1C[C@H](n2c(CC(=O)NC(C)(C)c3ccccn3)nc3cnc4ccc(C#N)cc4c32)CCO1` [Compound 185, 2-{8-cyano-1-[(2R,4R)-2-methyloxan-4-yl]-1H-imidazo[4,5-c]quinolin-2-yl}-N-[2-(pyridin-2-yl)propan-2-yl]acetamide], the IC50 at LRRK2 wild type enzyme stood at 0.42 nM; in test [1], 2.56 nM.

For `C[C@@H]1C[C@H](n2c(CNS(=O)(=O)C3CC3)nc3cnc4ccc(C#N)cc4c32)CCO1` [Compound 22, N-({8-cyano-1-[(2R,4R)-2-methyloxan-4-yl]-1H-imidazo[4,5-c]quinolin-2-yl}methyl)cyclopropanesulfonamide], the concentration for half-maximal inhibition (IC50) worked out at 6.8 nM at LRRK2 wild type enzyme and 536 nM in test [1].

Consider `C[C@@H]1C[C@H](n2c(CC(=O)NCc3cnccn3)nc3cnc4ccc(Cl)cc4c32)CCO1` [Compound 150, 2-{8-chloro-1-[(2R,4R)-2-methyloxan-4-yl]-1H-imidazo[4,5-c]quinolin-2-yl}-N-[(pyrazin-2-yl)methyl]acetamide], for which the IC50 at LRRK2 wild type enzyme turned out to be 0.47 nM; in test [1], 7.19 nM.

For the compound `C[C@@H]1C[C@H](n2c(C3CC(=O)N([C@@H]4CCOC4)C3)nc3cnc4ccc(C#N)cc4c32)CCO1` (stereo partly drawn) [Compound 44, 1-[(2R,4R)-2-methyloxan-4-yl]-2-{5-oxo-1-[(3R)-oxolan-3-yl]pyrrolidin-3-yl}-1H-imidazo[4,5-c]quinoline-8-carbonitrile], the 50% inhibitory concentration (IC50) stood at 3.43 nM against LRRK2 wild type enzyme and 555 nM in test [1].

In the case of `Cc1noc(CNC(=O)Cc2nc3cnc4ccc(C#N)cc4c3n2[C@@H]2CCO[C@H](C)C2)n1` [Compound 279, N-[(3-methyl-1,2,4-oxadiazol-5-yl)methyl]{3-[(2R,4R)-2-methyltetrahydro-2H-pyran-4-yl]-12-cyano-3,5,8-triazatricyclo[7.4.0.0^2,6]trideca-1(9),2(6),4,7,10,12-hexaen-4-yl}acetamide], the half-inhibitory concentration (IC50) came to 0.776 nM at LRRK2 wild type enzyme and 86.3 nM in test [1].

For the compound `CC(C)NC(=O)Cc1nc2cnc3ccc(C#N)cc3c2n1[C@@H]1CCO[C@H](C)C1` [Compound 14, 2-{8-cyano-1-[(2R,4R)-2-methyloxan-4-yl]-1H-imidazo[4,5-c]quinolin-2-yl}-N-(propan-2-yl)acetamide], the concentration for half-maximal inhibition (IC50) against LRRK2 wild type enzyme came out at 7.01 nM; in test [1], 43.7 nM.

For `Cc1nc2n(n1)CC(NC(=O)Cc1nc3cnc4ccc(C#N)cc4c3n1[C@@H]1CCO[C@H](C)C1)CC2` (stereo partly drawn) [Compound 244, N-(2-methyl-4,5,6,7-tetrahydro-1,3,3a-triaza-5-indenyl){3-[(2R,4R)-2-methyltetrahydro-2H-pyran-4-yl]-12-cyano-3,5,8-triazatricyclo[7.4.0.0^2,6]trideca-1,4,6,8,10,12-hexaen-4-yl}acetamide], the IC50 against LRRK2 wild type enzyme stood at 1.39 nM; in test [1], 2630 nM.

Consider `N#Cc1ccc2ncc3nc(CC(=O)NCC4CC4)n(C4CCOCC4)c3c2c1` [Compound 343, N-cyclopropylmethyl{12-cyano-3-(tetrahydro-2H-pyran-4-yl)-3,5,8-triazatricyclo[7.4.0.0^2,6]trideca-1,4,6,8,10,12-hexaen-4-yl}acetamide], for which the IC50 against LRRK2 wild type enzyme was 2.81 nM; in test [1], 135 nM.

In the case of `C[C@@H]1C[C@H](n2c(CNC(=O)c3ccccn3)nc3cnc4ccc(C#N)cc4c32)CCO1` [Compound 19, N-({8-cyano-1-[(2R,4R)-2-methyloxan-4-yl]-1H-imidazo[4,5-c]quinolin-2-yl}methyl)pyridine-2-carboxamide], the half-maximal inhibitory concentration (IC50) worked out at 0.591 nM on LRRK2 wild type enzyme and 22.9 nM in test [1].

Take `Cc1cc(F)ncc1NC(=O)Cc1nc2cnc3ccc(C#N)cc3c2n1[C@@H]1CCO[C@H](C)C1` [Compound 205, N-(6-fluoro-4-methyl-3-pyridyl){3-[(2R,4R)-2-methyltetrahydro-2H-pyran-4-yl]-12-cyano-3,5,8-triazatricyclo[7.4.0.0^2,6]trideca-1,4,6,8,10,12-hexaen-4-yl}acetamide]: the 50% inhibitory concentration (IC50) is 0.387 nM at LRRK2 wild type enzyme and 11.1 nM in test [1].

Regarding `COc1nc(C)ncc1NC(=O)Cc1nc2cnc3ccc(C#N)cc3c2n1[C@@H]1CCO[C@H](C)C1` [Compound 248, N-(4-methoxy-2-methyl-5-pyrimidinyl){3-[(2R,4R)-2-methyltetrahydro-2H-pyran-4-yl]-12-cyano-3,5,8-triazatricyclo[7.4.0.0^2,6]trideca-1(9),2(6),4,7,10,12-hexaen-4-yl}acetamide], the IC50 against LRRK2 wild type enzyme was 0.4 nM; in test [1] it was 4.2 nM.

Regarding `N#Cc1ccc2ncc3nc(CC(=O)NCC4CC4)n(C4CCCC4)c3c2c1` [Compound 109, 2-{8-cyano-1-cyclopentyl-1H-imidazo[4,5-c]quinolin-2-yl}-N— (cyclopropylmethyl)acetamide], the results for the concentration for half-maximal inhibition (IC50) (against LRRK2 wild type enzyme; in test [1]) were 1.82 nM and 172 nM, respectively.

Take `C[C@@H]1C[C@H](n2c(CNc3ncccn3)nc3cnc4ccc(C#N)cc4c32)CCO1` [Compound 105, 1-[(2R,4R)-2-methyloxan-4-yl]-2-{[(pyrimidin-2-yl)amino]methyl}-1H-imidazo[4,5-c]quinoline-8-carbonitrile]: the IC50 at LRRK2 wild type enzyme was 3.5 nM; in test [1] it was 240 nM.

As to `C[C@@H]1C[C@H](n2c(CC(=O)NC3CCC3)nc3cnc4ccc(Cl)cc4c32)CCO1` [Compound 332, N-cyclobutyl{3-[(2R,4R)-2-methyltetrahydro-2H-pyran-4-yl]-12-chloro-3,5,8-triazatricyclo[7.4.0.0^2,6]trideca-1(9),2(6),4,7,10,12-hexaen-4-yl}acetamide], the values for the IC50 (against LRRK2 wild type enzyme; in test [1]) were 0.741 nM and 10.9 nM, respectively.

`C[C@@H]1C[C@H](n2c([C@H]3CCN(S(C)(=O)=O)C3)nc3cnc4ccc(C#N)cc4c32)CCO1` [Compound 39, 2-[(3S)-1-methanesulfonylpyrrolidin-3-yl]-1-[(2R,4R)-2-methyloxan-4-yl]-1H-imidazo[4,5-c]quinoline-8-carbonitrile]: the IC50 on LRRK2 wild type enzyme amounted to 5.27 nM; in test [1] it was 894 nM.

Consider `C[C@@H]1C[C@H](n2c(CC(=O)Nc3ccnn3C3COC3)nc3cnc4ccc(C#N)cc4c32)CCO1` [Compound 345, N-[1-(3-oxetanyl)-5-pyrazolyl]{3-[(2R,4R)-2-methyltetrahydro-2H-pyran-4-yl]-12-cyano-3,5,8-triazatricyclo[7.4.0.0^2,6]trideca-1(9),2(6),4,7,10,12-hexaen-4-yl}acetamide], for which the half-maximal inhibitory concentration (IC50) on LRRK2 wild type enzyme worked out at 0.573 nM; in test [1], 52.6 nM.

On to `COc1nnccc1NC(=O)Cc1nc2cnc3ccc(C#N)cc3c2n1[C@@H]1CCO[C@H](C)C1` [Compound 222, N-(3-methoxy-4-pyridazinyl){3-[(2R,4R)-2-methyltetrahydro-2H-pyran-4-yl]-12-cyano-3,5,8-triazatricyclo[7.4.0.0^2,6]trideca-1,4,6,8,10,12-hexaen-4-yl}acetamide], for which the IC50 is 0.263 nM at LRRK2 wild type enzyme and 2.9 nM in test [1].

With `C[C@@H]1C[C@H](n2c(CC(N)=O)nc3cnc4ccc(C#N)cc4c32)CCO1` [Compound 16, 2-{8-cyano-1-[(2R,4R)-2-methyloxan-4-yl]-1H-imidazo[4,5-c]quinolin-2-yl}acetamide], the 50% inhibitory concentration (IC50) against LRRK2 wild type enzyme is 1.15 nM; in test [1], 146 nM.

Regarding `C[C@@H]1C[C@H](n2c(CC(=O)Nc3ccon3)nc3cnc4ccc(Cl)cc4c32)CCO1` [Compound 352, N-3-isoxazolyl{3-[(2R,4R)-2-methyltetrahydro-2H-pyran-4-yl]-12-chloro-3,5,8-triazatricyclo[7.4.0.0^2,6]trideca-1(9),2(6),4,7,10,12-hexaen-4-yl}acetamide], the values for the IC50 (against LRRK2 wild type enzyme; in test [1]) were 0.507 nM and 4.06 nM, respectively.

Take `C[C@@H]1C[C@H](n2c([C@@H]3CN(CC4CC4)C(=O)O3)nc3cnc4ccc(C#N)cc4c32)CCO1` [Compound 37, 2-[(5S)-3-(cyclopropylmethyl)-2-oxo-1,3-oxazolidin-5-yl]-1-[(2R,4R)-2-methyloxan-4-yl]-1H-imidazo[4,5-c]quinoline-8-carbonitrile]: the half-maximal inhibitory concentration (IC50) at LRRK2 wild type enzyme was determined as 53.1 nM; in test [1], 3700 nM.

Turning to `C[C@@H]1C[C@H](n2c(C3CC(=O)N(Cc4cnn(C)c4)C3)nc3cnc4ccc(C#N)cc4c32)CCO1` (mixture of isomers) [Compound 58, 2-[(3RS)-1-[(1-methyl-1H-pyrazol-4-yl)methyl]-5-oxopyrrolidin-3-yl]-1-[(2R,4R)-2-methyloxan-4-yl]-1H-imidazo[4,5-c]quinoline-8-carbonitrile], the IC50 on LRRK2 wild type enzyme came out at 1.6 nM; in test [1], 931 nM.
